A word on the pIC50: it is the IC50 on a negative log10 scale, so that one unit is a factor of ten.

The source of these data is US8629168B2, “Benzoxazoles and oxazolopyridines being useful as janus kinases inhibitors” (priority 2006, dated 2014).

Each structure is given as a SMILES string. pIC50: −log10 of the molar value.

T1 sequence (O60674 808-1132): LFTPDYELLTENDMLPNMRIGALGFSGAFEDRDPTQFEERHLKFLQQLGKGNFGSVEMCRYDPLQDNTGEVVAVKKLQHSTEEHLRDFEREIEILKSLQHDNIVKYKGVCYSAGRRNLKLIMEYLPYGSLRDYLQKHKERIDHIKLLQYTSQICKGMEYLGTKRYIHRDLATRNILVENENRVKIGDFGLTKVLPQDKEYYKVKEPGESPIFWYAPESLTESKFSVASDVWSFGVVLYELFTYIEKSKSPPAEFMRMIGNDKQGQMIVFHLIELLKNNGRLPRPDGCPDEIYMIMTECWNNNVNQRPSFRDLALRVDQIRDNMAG

The test addresses T1, GST-JAK2(808-1132) (Homo sapiens, UniProt O60674).
T1 construct: GST-JAK2(808-1132) is purchased from Invitrogen; purchased Invitrogen (Carlsbad, USA) #4288
The test is described as follows: EPK JAK/TYK-kinase family profiling assay (Caliper mobility shift), JAK2. It counts as biochemical. Conditions: Caliper mobility shift assay of Example 187, 20 μM ATP, read-out: IC50 with Test in present Example. The method, boiled down:
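Caliper mobility-shift assay with the GST-tagged kinase domain and a fluorescently labeled peptide substrate plus ATP, run 60 min at 30° C and then stopped with EDTA buffer. Turnover was taken as the substrate/product ratio. Compounds were tested at eight final concentrations from 10 to 0.003 μM.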
As to `O=C1Cc2cc(Nc3nc4cccc(-c5cc(F)c(CN6CCOCC6)c(F)c5)c4o3)ccc2N1` [Example 134, 5-[7-(3,5-Difluoro-4-morpholin-4-ylmethyl-phenyl)-benzooxazol-2-ylamino]-1,3-dihydro-indol-2-one], the pIC50 is 7.01.
For the molecule `C[S+]([O-])c1ccc(Nc2nc3cccc(-c4ccc(CC(=O)N5CCOCC5)cc4)c3o2)cc1` (stereo not shown) [Example 135, 2-{4-[2-(4-Methanesulfinyl-phenylamino)-benzooxazol-7-yl]-phenyl}-1-morpholin-4-yl-ethanone], the pIC50 was 7.74.
Turning to `COc1cc(Nc2nc3cccc(-c4ccc(Cn5ccnc5)cc4)c3o2)cc(OC)c1OC` [Example 136, [7-(4-Imidazol-1-ylmethyl-phenyl)-benzooxazol-2-yl]-(3,4,5-trimethoxy-phenyl)-amine], the pIC50 was 7.74.
Next, `COc1cc(Nc2nc3cccc(-c4ccc(CN5CCN(C)CC5)cc4)c3o2)cc(OC)c1OC` [Example 137]: 6.80.
Next, `COc1cc(Nc2nc3cccc(-c4ccc(CN5CCOCC5)cc4)c3o2)cc(OC)c1OC` [Example 138, [7-(4-Morpholin-4-ylmethyl-phenyl)-benzooxazol-2-yl]-(3,4,5-trimethoxy-phenyl)-amine]: 7.85; `COc1cc(Nc2nc3cccc(-c4ccc(CO)cc4)c3o2)cc(OC)c1OC` [Example 143, {4-[2-(3,4,5-Trimethoxy-phenylamino)-benzooxazol-7-yl]-phenyl}-methanol]: 7.78; `CNS(=O)(=O)c1ccc(-c2cccc3nc(Nc4ccc(C)c(OC)c4)oc23)cc1` [Example 144, 4-[2-(3-Methoxy-4-methyl-phenylamino)-benzooxazol-7-yl]-methyl-benzenesulfonamide]: 6.14.
For `COCCNC(=O)c1ccc(Nc2nc3cccc(-c4ccc(C(=O)N5CCOCC5)cc4)c3o2)cc1` [Example 145, N-(2-Methoxy-ethyl)-4-{7-[4-(morpholine-4-carbonyl)-phenyl]-benzooxazol-2-ylamino}-benzamide], the pIC50 was 7.26.
Next, `CN(C)C(=O)c1ccc(Nc2nc3cccc(-c4ccc(S(N)(=O)=O)cc4)c3o2)cc1` [Example 146, N,N-Dimethyl-4-[7-(4-sulfamoyl-phenyl)-benzooxazol-2-ylamino]-benzamide]: 7.71; `COCCNC(=O)c1ccc(Nc2nc3cccc(-c4ccc(CC(=O)N5CCOCC5)cc4)c3o2)cc1` [Example 147, N-(2-Methoxy-ethyl)-4-{7-[4-(2-morpholin-4-yl-2-oxo-ethyl)-phenyl]-benzooxazol-2-ylamino}-benzamide]: 7.55; `CS(=O)(=O)Nc1cccc(Nc2nc3cccc(-c4ccc(C(=O)N5CCOCC5)cc4)c3o2)c1` [Example 148, N-(3-{7-[4-(Morpholine-4-carbonyl)-phenyl]-benzooxazol-2-ylamino}-phenyl)-methanesulfonamide]: 7.30.
Next, `COC(=O)c1ccc(Nc2nc3cccc(-c4ccc(C(=O)N5CCOCC5)cc4)c3o2)cc1OC` [Example 149, 2-Methoxy-4-{7-[4-(morpholine-4-carbonyl)-phenyl]-benzooxazol-2-ylamino}-benzoic acid methyl ester]: 7.21; `COc1cc(Nc2nc3cccc(-c4ccc(C(=O)N5CCOCC5)cc4)c3o2)ccc1C(=O)N(C)C` [Example 150, 2-Methoxy-N,N-dimethyl-4-{7-[4-(morpholine-4-carbonyl)-phenyl]-benzooxazol-2-ylamino}-benzamide]: 7.60; `CN1CCN(c2ccc(Nc3nc4cccc(-c5ccc(C(C)(C)C(=O)N6CCOCC6)cc5)c4o3)cc2)CC1` [Example 151, 2-Methyl-2-(4-{2-[4-(4-methyl-piperazin-1-yl)-phenylamino]-benzooxazol-7-yl}-phenyl)-1-morpholin-4-yl-propan-1-one]: 7.56.
Next, `CCN1CCN(c2ccc(Nc3nc4ccnc(-c5cc(F)c(CN6CCOCC6)c(F)c5)c4o3)cc2C)CC1` [Example 152, [4-(3,5-Difluoro-4-morpholin-4-ylmethyl-phenyl)-oxazolo[5,4-c]pyridin-2-yl]-[4-(4-ethyl-piperazin-1-yl)-3-methyl-phenyl]-amine]: 6.74; `CCN1CCN(c2ccc(Nc3nc4ccnc(-c5cc(F)c(CN6CCS(=O)(=O)CC6)c(F)c5)c4o3)cc2C)CC1` [Example 153, {4-[4-(1,1-Dioxo-1lambda*6*-thiomorpholin-4-ylmethyl)-3,5-difluoro-phenyl]-oxazolo[5,4-c]pyridin-2-yl}-[4-(4-ethyl-piperazin-1-yl)-3-methyl-phenyl]-amine]: 7.59; `Cc1cc(Nc2nc3cccc(-c4cc(F)c(CN5CCS(=O)(=O)CC5)c(F)c4)c3o2)ccc1N1CCN(C2CC2)CC1` [Example 154, [4-(4-Cyclopropyl-piperazin-1-yl)-3-methyl-phenyl]-{7-[4-(1,1-dioxo-1lambda*6*-thiomorpholin-4-ylmethyl)-3,5-difluoro-phenyl]-benzooxazol-2-yl}-amine]: 8.48.
Consider `Cc1cc(-c2cccc3nc(Nc4ccc(N5CCN(C6CC6)CC5)c(C)c4)oc23)ccc1C(=O)N1CCOCC1` [Example 155, (4-{2-[4-(4-Cyclopropyl-piperazin-1-yl)-3-methyl-phenylamino]-benzooxazol-7-yl}-2-methyl-phenyl)-morpholin-4-yl-methanone], for which the negative logarithm of the IC50 (pIC50) is 7.87.
Next, `Cc1cc(Nc2nc3cccc(-c4ccc(C(=O)N5CCOCC5)c(F)c4)c3o2)ccc1N1CCN(C2CC2)CC1` [Example 156, (4-{2-[4-(4-Cyclopropyl-piperazin-1-yl)-3-methyl-phenylamino]-benzooxazol-7-yl}-2-fluoro-phenyl)-morpholin-4-yl-methanone]: 7.69; `Cc1cc(Nc2nc3cccc(-c4ccc(C(C)(C)C(=O)N5CCOCC5)cc4)c3o2)ccc1N1CCN(C2CC2)CC1` [Example 157, 2-(4-{2-[4-(4-Cyclopropyl-piperazin-1-yl)-3-methyl-phenylamino]-benzooxazol-7-yl}-phenyl)-2-methyl-1-morpholin-4-yl-propan-1-one]: 7.93; `Cc1cc(Nc2nc3cccc(-c4cc(F)c(CN5CCOCC5)c(F)c4)c3o2)ccc1C(=O)N(C)CCN(C)C` [Example 158, 4-[7-(3,5-Difluoro-4-morpholin-4-ylmethyl-phenyl)-benzooxazol-2-ylamino]-N-(2-dimethylamino-ethyl)-2,N-dimethyl-benzamide]: 7.68.
Next, `Cc1cc(Nc2nc3cccc(-c4cc(F)c(CN5CCS(=O)(=O)CC5)c(F)c4)c3o2)ccc1C(=O)N(C)CCN(C)C` [Example 159, N-(2-Dimethylamino-ethyl)-4-{7-[4-(1,1-dioxo-1lambda*6*-thiomorpholin-4-ylmethyl)-3,5-difluoro-phenyl]-benzooxazol-2-ylamino}-2,N-dimethyl-benzamide]: 8.21; `Cc1cc(Nc2nc3cccc(-c4cc(F)c(CN5CCOCC5)c(F)c4)c3o2)ccc1N1CCN(C2CC2)CC1` [Example 160, [4-(4-Cyclopropyl-piperazin-1-yl)-3-methyl-phenyl]-[7-(3,5-difluoro-4-morpholin-4-ylmethyl-phenyl)-benzooxazol-2-yl]-amine]: 7.74.
Next, `Cc1cc(Nc2nc3cccc(-c4cc(F)c(CN5CCOCC5)c(F)c4)c3o2)cn(C)c1=O` [Example 161, 5-[7-(3,5-Difluoro-4-morpholin-4-ylmethyl-phenyl)-benzooxazol-2-ylamino]-1,3-dimethyl-1H-pyridin-2-one]: 7.10; `Cc1cc(-c2cccc3nc(Nc4ccc(N5CCN(C6CC6)CC5)c(C)c4)oc23)ccc1C(=O)N1CCS(=O)(=O)CC1` [Example 162, (4-{2-[4-(4-Cyclopropyl-piperazin-1-yl)-3-methyl-phenylamino]-benzooxazol-7-yl}-2-methyl-phenyl)-(1,1-dioxo-1lambda*6*-thiomorpholin-4-yl)-methanone]: 8.05.
In the case of `Cc1cc(Nc2nc3cccc(-c4cc(F)c(CN5CCOCC5)c(F)c4)c3o2)ccc1N1CCOCC1` [Example 163, [7-(3,5-Difluoro-4-morpholin-4-ylmethyl-phenyl)-benzooxazol-2-yl]-(3-methyl-4-morpholin-4-yl-phenyl)-amine], the negative-log IC50 (pIC50) was 7.94.
For `Cc1cc(Nc2nc3cccc(-c4cc(F)c(CN5CCS(=O)(=O)CC5)c(F)c4)c3o2)ccc1N1CCOCC1` [Example 164, {7-[4-(1,1-Dioxo-1lambda*6*-thiomorpholin-4-ylmethyl)-3,5-difluoro-phenyl]-benzooxazol-2-yl}-(3-methyl-4-morpholin-4-yl-phenyl)-amine], the pIC50 is 8.14.
Consider `Cc1cc(Nc2nc3cccc(-c4ccc(C(=O)N5CCS(=O)(=O)CC5)cc4)c3o2)ccc1CN1CCOCC1` [Example 165, (1,1-Dioxo-1lambda*6*-thiomorpholin-4-yl)-{4-[2-(3-methyl-4-morpholin-4-ylmethyl-phenylamino)-benzooxazol-7-yl]-phenyl}-methanone], for which the negative-log IC50 (pIC50) is 7.96.
Next, `Cc1cc(Nc2nc3cccc(-c4ccc(C(=O)N5CCOCC5)c(C)c4)c3o2)ccc1CN1CCOCC1` [Example 166, {2-Methyl-4-[2-(3-methyl-4-morpholin-4-ylmethyl-phenylamino)-benzooxazol-7-yl]-phenyl}-morpholin-4-yl-methanone]: 7.95; `Cc1cc(Nc2nc3cccc(-c4ccc(C(C)(C)C(=O)N5CCOCC5)cc4)c3o2)ccc1CN1CCOCC1` [Example 167, 2-Methyl-2-{4-[2-(3-methyl-4-morpholin-4-ylmethyl-phenylamino)-benzooxazol-7-yl]-phenyl}-1-morpholin-4-yl-propan-1-one]: 7.85.
For the molecule `Cc1cc(Nc2nc3ccnc(-c4cc(F)c(CN5CCS(=O)(=O)CC5)c(F)c4)c3o2)ccc1C(=O)N(C)C` [Example 168, 4-{4-[4-(1,1-Dioxo-1lambda*6*-thiomorpholin-4-ylmethyl)-3,5-difluoro-phenyl]-oxazolo[5,4-c]pyridin-2-ylamino}-2,N,N-trimethyl-benzamide], the negative logarithm of the IC50 (pIC50) is 6.89.
